Laboratory results published in patent US20100210635A1, “RENIN INHIBITORS” (Takeda Pharmaceutical Company Limited, priority 2006, published 2010).

The compounds below were run against T1, Recombinant human renin (Homo sapiens, UniProt P00797) (assay: In vitro enzymatic activity assay of Renin inhibitors (fluorescence, QXL520/HiLyteFluo488 peptide substrate)). Settings: recombinant human renin 3 nM, 1 μM substrate, 37° C., pH 7.4; values given as ranges; read-out: IC50 of Exemplified Compounds Against Renin.
T1 construct: isolate the active form (residues 67-406); made in house; host or cells: FreeStyle 293-F cells (transient expression of pcDNA3.1(+)/hREN)
T1 sequence (P00797 67-406): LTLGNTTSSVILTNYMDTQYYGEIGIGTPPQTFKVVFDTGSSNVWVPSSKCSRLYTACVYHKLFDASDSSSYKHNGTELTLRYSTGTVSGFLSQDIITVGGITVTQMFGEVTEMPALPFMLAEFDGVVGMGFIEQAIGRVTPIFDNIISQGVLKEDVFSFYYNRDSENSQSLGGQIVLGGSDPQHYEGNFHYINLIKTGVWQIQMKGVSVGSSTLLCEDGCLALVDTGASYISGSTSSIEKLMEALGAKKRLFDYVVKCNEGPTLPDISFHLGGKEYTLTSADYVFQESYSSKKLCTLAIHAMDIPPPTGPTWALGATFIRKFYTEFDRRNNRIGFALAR
Type: biochemical
Source text: Test compounds in varying concentrations may be reacted with recombinant human renin in the presence of substrate, e.g., QXL520-γ-Abu-Ile-His-Pro-Phe-His-Leu-Val-Ile-His-Thr-Lys (HiLyteFluo488)-Arg-OH (Anaspec, San Jose, Calif.). The reaction can be followed kinetically using fluorescence (excitation λ=485 nm; emission λ=538 nm). Inhibition constants (IC50) may be calculated by non-linear curve fitting of the compound concentrations and fluorescence intensities to the standard IC50 equation.
Solutions of test compounds in varying concentrations (<2 mM final concentration) are prepared in dimethyl sulfoxide (DMSO) and then diluted into assay buffer comprising 50 mM Hepes, 1 mM EDTA, 1 mM DTT, 0.1 mg/ml BSA, 0.01% Brij35, pH 7.4. Alternatively, the assay can be performed with a high BSA concentration, wherein the buffer contains an additional 2% BSA.
Recombinant human renin (3 nM final concentration) is added to the dilutions and pre-incubated with the compounds for 10 minutes at 37° C. As described in Examples A-C above, human Renin can be obtained by expressing preprorenin (residue 1-406) in mammalian cells, treating the prorenin (residues 24-406) contained in the culture supernatant with trypsin, and isolate the active form (residues 67-406). After pre-incubation, the reaction is initiated with 1 μM of substrate QXL520-γ-Abu-Ile-His-Pro-Phe-His-Leu-Val-Ile-His-Thr-Lys (HiLyteFluo488)-Arg-OH (Anaspec, San Jose, Calif.). The final DMSO in the assay is 5%. The total volume of the reaction mixture is 20 μL, which can be placed on Greiner 384-well small volume plates.
Renin activity may be determined via fluorescence (excitation λ=485 nm; emission λ=538 nm), e.g., on a Molecular Devices SPECTROmax GEMINI XPS. The fluorescence intensity is determined upon the addition of substrate and determined again after incubation at 37° C. for one hour. The fluorescence intensity of a blank (no inhibition) using vehicle alone is also determined. Renin activity is linearly proportional to the change in fluorescence observed (final−initial).
The percent inhibition of Renin at a given compound concentration is defined as:
100%×[1−(Fcompound/Fblank)]
where Fcompound is the observed fluorescence at a given concentration of test compound and Fblank is the observed fluorescence in the presence of vehicle alone.
The pIC50 value (negative log of the molar concentration of the compound that produces 50% inhibition) of a test compound is calculated by non-linear least squares curve fitting of the equation: […]
to percent inhibition versus compound concentration. The 50% inhibitory concentration (IC50) of a test compound is calculated by raising 10 to the negative pIC50 (10^−pIC50).

Q: With O=C(CCc1ccccc1)N1CCNC[C@H]1Cc1ccccc1 [Example 1, (R)-1-(2-Benzylpiperazin-1-yl)-3-phenylpropan-1-one] as the compound, how does the IC50 read?
A: Its IC50 is 5 to 50 µM.

Q: O=C(CC(c1ccccc1)c1ccccc1)N1CCNC[C@H]1Cc1ccccc1 [Example 2, (R)-1-(2-Benzylpiperazin-1-yl)-3,3-diphenylpropan-1-one] was tested. Which IC50 did it give?
A: Its IC50 is 0.5 to 5 µM.

Q: With O=C(Cc1ccccc1-c1ccc(F)cc1)N1CCNC[C@H]1Cc1ccccc1 [Example 3, (R)-1-(2-Benzylpiperazin-1-yl)-2-(4′-fluorobiphenyl-2-yl)ethanone] as the compound, how does the IC50 read?
A: Its IC50 is 0.5 to 5 µM.

Q: How did the IC50 turn out when O=C(COc1ccccc1Br)N1CCNC[C@H]1Cc1ccccc1 [Example 4, (R)-1-(2-Benzylpiperazin-1-yl)-2-(2-bromophenoxy)ethanone] was run?
A: The IC50 was 5 to 50 µM.

Q: Which IC50 does the source give for O=C(CCC(=O)N1CCNC[C@H]1Cc1ccccc1)c1ccccc1 [Example 5, (R)-1-(2-Benzylpiperazin-1-yl)-4-phenylbutane-1,4-dione] here?
A: Its IC50 is over 50 µM.

Q: Which IC50 does the source give for O=C(C(Cc1ccccc1)c1ccccc1)N1CCNC[C@H]1Cc1ccccc1 (stereo partly drawn) [Example 6, 1-((R)-2-Benzylpiperazin-1-yl)-2,3-diphenylpropan-1-one] here?
A: The IC50 was 0.5 to 5 µM.

Q: With O=C(CCc1ccccc1Oc1ccccc1)N1CCNC[C@H]1Cc1ccccc1 [Example 7, (R)-1-(2-Benzylpiperazin-1-yl)-3-(2-phenoxyphenyl)propan-1-one] as the compound, how does the IC50 read?
A: Its IC50 is under 0.5 µM.

Q: Which IC50 does the source give for O=C(Cc1ccccc1Oc1ccccc1)N1CCNC[C@H]1Cc1ccccc1 [Example 8, (R)-1-(2-Benzylpiperazin-1-yl)-2-(2-phenoxyphenyl)ethanone] here?
A: The IC50 was 5 to 50 µM.

Q: Which IC50 does the source give for COc1ccccc1-c1ccccc1CC(=O)N1CCNC[C@H]1Cc1ccccc1 [Example 9, 1-((R)-2-Benzylpiperazin-1-yl)-2-(2′-methoxybiphenyl-2-yl)ethanone] here?
A: Its IC50 is 5 to 50 µM.

Q: How did the IC50 turn out when O=C(NC(c1ccccc1)c1ccccc1)N1CCNC[C@H]1Cc1ccccc1 [Example 10, (R)—N-Benzhydryl-2-benzylpiperazine-1-carboxamide] was run?
A: The IC50 was over 50 µM.

Q: How did the IC50 turn out when O=C(Cc1ccccc1-c1ccccc1Cl)N1CCNC[C@H]1Cc1ccccc1 [Example 11, 1-((R)-2-Benzylpiperazin-1-yl)-2-(2′-chlorobiphenyl-2-yl)ethanone] was run?
A: Its IC50 is 0.5 to 5 µM.

Q: For O=S(=O)(CCc1ccccc1)N1CCNC[C@H]1Cc1ccccc1 [Example 12, (R)-2-Benzyl-1-(phenethylsulfonyl)piperazine], which IC50 is on record?
A: The IC50 was 5 to 50 µM.

Q: O=S(=O)(CC(c1ccccc1)c1ccccc1)N1CCNC[C@H]1Cc1ccccc1 [Example 13, (R)-2-Benzyl-1-(2,2-diphenylethylsulfonyl)piperazine] was tested. Which IC50 did it give?
A: Its IC50 is 0.5 to 5 µM.

Q: Which IC50 does the source give for Cc1ccc(C(CC(=O)N2CCNC[C@H]2Cc2ccccc2)N2Cc3ccccc3C2=O)cc1 (stereo partly drawn) [Example 14, 2-(3-((R)-2-Benzylpiperazin-1-yl)-3-oxo-1-p-tolylpropyl)isoindolin-1-one] here?
A: The IC50 was 0.5 to 5 µM.

Q: Which IC50 does the source give for O=C(COc1cccc2ccccc12)N1CCNC[C@H]1Cc1ccccc1 [Example 15, (R)-1-(2-Benzylpiperazin-1-yl)-2-(naphthalen-1-yloxy)ethanone] here?
A: Its IC50 is 5 to 50 µM.

Q: Which IC50 does the source give for O=C(CC(Cc1ccccc1)c1ccco1)N1CCNC[C@H]1Cc1ccccc1 (stereo partly drawn) [Example 16, 1-((R)-2-Benzylpiperazin-1-yl)-3-(furan-2-yl)-4-phenylbutan-1-one] here?
A: Its IC50 is 0.5 to 5 µM.

Q: Which IC50 does the source give for C[C@H](CC(=O)N1CCNC[C@H]1Cc1ccccc1)c1ccccc1 [Example 17, (R)-1-((R)-2-Benzylpiperazin-1-yl)-3-phenylbutan-1-one] here?
A: The IC50 was 0.5 to 5 µM.

Q: C[C@@H](CC(=O)N1CCNC[C@H]1Cc1ccccc1)c1ccccc1 [Example 18, (S)-1-((R)-2-Benzylpiperazin-1-yl)-3-phenylbutan-1-one] was tested. Which IC50 did it give?
A: Its IC50 is 5 to 50 µM.

Q: How did the IC50 turn out when O=C(CCCc1ccccc1)N1CCNC[C@H]1Cc1ccccc1 [Example 19, (R)-1-(2-Benzylpiperazin-1-yl)-4-phenylbutan-1-one] was run?
A: The IC50 was 5 to 50 µM.

Q: Which IC50 does the source give for CC1(C)CC(CC(=O)N2CCNC[C@H]2Cc2ccccc2)(c2ccccc2)CCO1 (stereo partly drawn) [Example 20, 1-((R)-2-Benzylpiperazin-1-yl)-2-(2,2-dimethyl-4-phenyltetrahydro-2H-pyran-4-yl)ethanone] here?
A: The IC50 was 0.5 to 5 µM.

Q: How did the IC50 turn out when O=C(Oc1ccccc1CCC(=O)N1CCNC[C@H]1Cc1ccccc1)c1ccccc1 [Example 21, (R)-2-(3-(2-Benzylpiperazin-1-yl)-3-oxopropyl)phenyl benzoate] was run?
A: The IC50 was 0.5 to 5 µM.

Q: Which IC50 does the source give for O=C(CCc1ccccc1Oc1ccc(Cl)cc1)N1CCNC[C@H]1Cc1ccccc1 [Example 22, (R)-1-(2-Benzylpiperazin-1-yl)-3-(2-(4-chlorophenoxy)phenyl)propan-1-one] here?
A: Its IC50 is under 0.5 µM.

Q: For Cc1cccc(Oc2ccccc2CCC(=O)N2CCNC[C@H]2Cc2ccccc2)c1 [Example 23, (R)-1-(2-benzylpiperazin-1-yl)-3-(2-(m-tolyloxy)phenyl)propan-1-one], which IC50 is on record?
A: The IC50 was under 0.5 µM.

Q: For CC(=O)NCCc1ccccc1Oc1ccccc1CCC(=O)N1CCNC[C@H]1Cc1ccccc1 [Example 24, (R)—N-(2-(2-(3-(2-Benzylpiperazin-1-yl)-3-oxopropyl)phenoxy)phenethyl)acetamide], which IC50 is on record?
A: The IC50 was under 0.5 µM.

Q: Which IC50 does the source give for CC(=O)NCCc1cc(C)ccc1Oc1ccc(C)cc1CCC(=O)N1CCNC[C@H]1Cc1ccccc1 [Example 25, (R)—N-(2-(2-(3-(2-Benzylpiperazin-1-yl)-3-oxopropyl)-4-methylphenoxy)-1-methylphenethyl)acetamide] here?
A: The IC50 was under 0.5 µM.

Q: For CC(=O)NCCc1ccccc1Oc1ccc(C)cc1CCC(=O)N1CCNC[C@H]1Cc1ccccc1 [Example 26, (R)—N-(2-(2-(3-(2-Benzylpiperazin-1-yl)-3-oxopropyl)-4-methylphenoxy)phenethyl)acetamide], which IC50 is on record?
A: The IC50 was under 0.5 µM.

Q: Which IC50 does the source give for CC(=O)NCCc1cc(C)ccc1Oc1cc(C)ccc1CCC(=O)N1CCNC[C@H]1Cc1ccccc1 [Example 27] here?
A: Its IC50 is under 0.5 µM.

Q: With CC(=O)NCCc1ccccc1Oc1cc(C)ccc1CCC(=O)N1CCNC[C@H]1Cc1ccccc1 [Example 28, (R)—N-(2-(2-(3-(2-Benzylpiperazin-1-yl)-3-oxopropyl)-5-methylphenoxy)phenethyl)acetamide] as the compound, how does the IC50 read?
A: Its IC50 is under 0.5 µM.

Q: For CC(=O)NCc1ccccc1Oc1ccccc1CCC(=O)N1CCNC[C@H]1Cc1ccccc1 [Example 29, (R)—N-(2-(2-(3-(2-Benzylpiperazin-1-yl)-3-oxopropyl)phenoxy)benzyl)acetamide], which IC50 is on record?
A: Its IC50 is under 0.5 µM.

Q: How did the IC50 turn out when N#Cc1ccccc1Oc1ccccc1CCC(=O)N1CCNC[C@H]1Cc1ccccc1 [Example 30, (R)-2-(2-(3-(2-benzylpiperazin-1-yl)-3-oxopropyl)phenoxy)benzonitrile] was run?
A: The IC50 was 0.5 to 5 µM.

Q: With CN(C)c1cccc(Oc2ccccc2CCC(=O)N2CCNC[C@H]2Cc2ccccc2)c1 [Example 31, (R)-1-(2-Benzylpiperazin-1-yl)-3-(2-(3-(dimethylamino)phenoxy)phenyl)propan-1-one] as the compound, how does the IC50 read?
A: The IC50 was under 0.5 µM.

Q: With CCOc1cccc(Oc2ccccc2CCC(=O)N2CCNC[C@H]2Cc2ccccc2)c1 [Example 32, (R)-1-(2-Benzylpiperazin-1-yl)-3-(2-(3-ethoxyphenoxy)phenyl)propan-1-one] as the compound, how does the IC50 read?
A: The IC50 was 0.5 to 5 µM.

Q: With CC(=O)Nc1cccc(Oc2ccccc2CCC(=O)N2CCNC[C@H]2Cc2ccccc2)c1 [Example 33, (R)—N-(3-(2-(3-(2-Benzylpiperazin-1-yl)-3-oxopropyl)phenoxy)phenyl)acetamide] as the compound, how does the IC50 read?
A: Its IC50 is 0.5 to 5 µM.

Q: Which IC50 does the source give for CCNC(=O)c1cccc(Oc2ccccc2CCC(=O)N2CCNC[C@H]2Cc2ccccc2)c1 [Example 34, (R)-3-(2-(3-(2-Benzylpiperazin-1-yl)-3-oxopropyl)phenoxy)-N-ethylbenzamide] here?
A: Its IC50 is 0.5 to 5 µM.

Q: How did the IC50 turn out when O=C(CCc1ccccc1Oc1cccc(CO)c1)N1CCNC[C@H]1Cc1ccccc1 [Example 35, (R)-1-(2-Benzylpiperazin-1-yl)-3-(2-(3-(hydroxymethyl)phenoxy)phenyl)propan-1-one] was run?
A: Its IC50 is 0.5 to 5 µM.
